assay: recombinant barcode read abundance after kanamycin selection (control-corrected) (log10(CPM+1)); higher = more efficient recombination; sequences stand for … in AGTGCAGAGAAAATCGGCCAGTTTTCTCTGCCTGCAGTCCGCATGCCGT…AGATTTATGCAGCGGACTGCCTTTCTCCCAAAGTGATAAACCGGACAGTATCATGGACCGGTTTTCCCGGTAATCCGTATTTGCAAGGTTGGTTTCACT; site = the 11-nt target
Summary of the method: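 Targets were screened in pooled form in E. coli against IS621 bridge RNA target-binding loops. Recombination efficiency is based on barcode counts at recombinant junctions in counts per million, averaged and corrected for the control. Numbers are shown as log10(CPM+1), with duplicate plates on chloramphenicol/ampicillin LB agar (control) or chloramphenicol/ampicillin/kanamycin with 0.1 mM IPTG.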
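Note: IS621 recombinase and bridge RNA in Escherichia coli cells.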

Sequence | recombinant barcode read abundance (log10)
TCTTGGACTTGGGTTCTAACCTGTTGCTG (site TCTTGGACTCA) | 0.0828
TCTTGGACTTGGGTTCTAACCTGTTGCTG (site TCTTGGACTGA) | 0.174
TCTTGGACTTGGGTTCTAACCTGTTGCTG (site TCTTGGACTTA) | 0.0733
TCTTGTTCTTGGGTTCTAACCTGTTGCCT (site ACTTGTTCTAG) | 0.383
TCTTGTTCTTGGGTTCTAACCTGTTGCCT (site CCTTGTTCTAG) | 0.179
TCTTGTTCTTGGGTTCTAACCTGTTGCCT (site GCTTGTTCTAG) | 0.0895
TCTTGTTCTTGGGTTCTAACCTGTTGCCT (site TCTTGTTCTAG) | 0.145
TGAAATACTTGGGTTCTAACCTGTTGCCT (site TGAAATACTAG) | 0.232
TGAAATACTTGGGTTCTAACCTGTTGCCT (site TGAACTACTAG) | 0.0246
TGAAATACTTGGGTTCTAACCTGTTGCCT (site TGAAGTACTAG) | 0
TGAAATACTTGGGTTCTAACCTGTTGCCT (site TGAATTACTAG) | 0.00965
TGAAATGCTTGGGTTCTAACCTGTTGCCT (site TGAAATGCTAG) | 0.329
TGAAATGCTTGGGTTCTAACCTGTTGCCT (site TGACATGCTAG) | 0.0158
TGAAATGCTTGGGTTCTAACCTGTTGCCT (site TGAGATGCTAG) | 0.256
TGAAATGCTTGGGTTCTAACCTGTTGCCT (site TGATATGCTAG) | 0.288
TGAACGCCTTGGGTTCTAACCTGTTGCCT (site AGTACGCCTAG) | 0.0861
TGAACGCCTTGGGTTCTAACCTGTTGCCT (site TGAACGCCTAG) | 0.39
TGAACGTCTTGGGTTCTAACCTGTTGCCT (site TGAAAGTCTAG) | 0.232
TGAACGTCTTGGGTTCTAACCTGTTGCCT (site TGAACGTCTAG) | 0.384
TGAACGTCTTGGGTTCTAACCTGTTGCCT (site TGAAGGTCTAG) | 0.0344
TGAACGTCTTGGGTTCTAACCTGTTGCCT (site TGAATGTCTAG) | 0.378
TGAACTACTTGGGTTCTAACCTGTTGCCT (site TGAAATACTAG) | 0.0445
TGAACTACTTGGGTTCTAACCTGTTGCCT (site TGAACTACTAG) | 0.192
TGAACTACTTGGGTTCTAACCTGTTGCCT (site TGAAGTACTAG) | 0.0835
TGAACTACTTGGGTTCTAACCTGTTGCCT (site TGAATTACTAG) | 0.065
TGAAGTCCTTGGGTTCTAACCTGTTGCGG (site CGACGTCCTCC) | 0.0219

Sequence | recombinant barcode read abundance (log10)
TGAAGTCCTTGGGTTCTAACCTGTTGCGG (site TGAAGTCCTCC) | 1.25
TGACAGGCTTGGGTTCTAACCTGTTGCAG (site GTACAGGCTCT) | 0.278
TGACAGGCTTGGGTTCTAACCTGTTGCAG (site TGACAGGCTCT) | 1.88
TGACCAGCTTGGGTTCTAACCTGTTGCCT (site TGACCAGCTAG) | 1.05
TGACCAGCTTGGGTTCTAACCTGTTGCCT (site TGAGAAGCTAG) | 0.0639
TGACCTTCTTGGGTTCTAACCTGTTGCCT (site TGACCTTCTAG) | 0.526
TGACCTTCTTGGGTTCTAACCTGTTGCCT (site TGACGTTCTAG) | 0.0226
TGACGCTCTTGGGTTCTAACCTGTTGCCT (site TGACGCTCTAG) | 0.905
TGACGCTCTTGGGTTCTAACCTGTTGCCT (site TGCCGCTCTAG) | 0.149
TGACGCTCTTGGGTTCTAACCTGTTGCCT (site TGGCGCTCTAG) | 0.323
TGACGCTCTTGGGTTCTAACCTGTTGCCT (site TGTCGCTCTAG) | 0.433
TGACTACCTTGGGTTCTAACCTGTTGCCT (site TCGCTACCTAG) | 0.0696
TGACTACCTTGGGTTCTAACCTGTTGCCT (site TGACTACCTAG) | 0.838
TGACTAGCTTGGGTTCTAACCTGTTGCCT (site TGACTAGCTAG) | 0.176
TGACTAGCTTGGGTTCTAACCTGTTGCCT (site TGCCTAGCTAG) | 0.03
TGACTAGCTTGGGTTCTAACCTGTTGCCT (site TGGCTAGCTAG) | 0.0206
TGACTAGCTTGGGTTCTAACCTGTTGCCT (site TGTCTAGCTAG) | 0.0443
TGAGAACCTTGGGTTCTAACCTGTTGCCT (site AGAGAACCTAG) | 0.666
TGAGAACCTTGGGTTCTAACCTGTTGCCT (site CGAGAACCTAG) | 0.486
TGAGAACCTTGGGTTCTAACCTGTTGCCT (site GGAGAACCTAG) | 0.118
TGAGAACCTTGGGTTCTAACCTGTTGCCT (site TGAGAACCTAG) | 2.33
TGAGAGGCTTGGGTTCTAACCTGTTGCCT (site TGAGAGGCTAG) | 0.718
TGAGAGGCTTGGGTTCTAACCTGTTGCCT (site TGAGCGGCTAG) | 0.173
TGAGAGGCTTGGGTTCTAACCTGTTGCCT (site TGAGGGGCTAG) | 0.361
TGAGAGGCTTGGGTTCTAACCTGTTGCCT (site TGAGTGGCTAG) | 0.638
TGAGTCCCTTGGGTTCTAACCTGTTGCCT (site TGAGTCCCTAG) | 2.03

Sequence | recombinant barcode read abundance (log10)
TGAGTCCCTTGGGTTCTAACCTGTTGCCT (site TGCGTCCCTAG) | 0.201
TGAGTCCCTTGGGTTCTAACCTGTTGCCT (site TGGGTCCCTAG) | 0.444
TGAGTCCCTTGGGTTCTAACCTGTTGCCT (site TGTGTCCCTAG) | 0.523
TGATATGCTTGGGTTCTAACCTGTTGCCT (site TGAAATGCTAG) | 0.322
TGATATGCTTGGGTTCTAACCTGTTGCCT (site TGACATGCTAG) | 0.347
TGATATGCTTGGGTTCTAACCTGTTGCCT (site TGAGATGCTAG) | 0.0846
TGATATGCTTGGGTTCTAACCTGTTGCCT (site TGATATGCTAG) | 0.463
TGATTGACTTGGGTTCTAACCTGTTGCTT (site GATGCACCTCC) | 0.194
TGATTGACTTGGGTTCTAACCTGTTGCTT (site TGATTGACTAA) | 0.0769
TGCATAGCTTGGGTTCTAACCTGTTGCCA (site CTTGCGACTAA) | 0.068
TGCATAGCTTGGGTTCTAACCTGTTGCCA (site TGCATAGCTTG) | 0.0795
TGCCACCCTTGGGTTCTAACCTGTTGCGT (site TACTACCCTAC) | 0.0993
TGCCACCCTTGGGTTCTAACCTGTTGCGT (site TGCCACCCTAC) | 2.14
TGCCCCGCTTGGGTTCTAACCTGTTGCCT (site ACTTAGTCTGA) | 0.341
TGCCCCGCTTGGGTTCTAACCTGTTGCCT (site TGCCCCGCTAG) | 1.11
TGCCGAACTTGGGTTCTAACCTGTTGCCT (site AGCCGAACTAG) | 0.0709
TGCCGAACTTGGGTTCTAACCTGTTGCCT (site CGCCGAACTAG) | 0.16
TGCCGAACTTGGGTTCTAACCTGTTGCCT (site GGCCGAACTAG) | 0.0503
TGCCGAACTTGGGTTCTAACCTGTTGCCT (site TGCCGAACTAG) | 0.161
TGCCGCTCTTGGGTTCTAACCTGTTGCCT (site TGACGCTCTAG) | 1.35
TGCCGCTCTTGGGTTCTAACCTGTTGCCT (site TGCCGCTCTAG) | 1.24
TGCCGCTCTTGGGTTCTAACCTGTTGCCT (site TGGCGCTCTAG) | 0.277
TGCCGCTCTTGGGTTCTAACCTGTTGCCT (site TGTCGCTCTAG) | 0.0629
TGCGACCCTTGGGTTCTAACCTGTTGCTT (site TGCGACCCTAA) | 1.74
TGCGACCCTTGGGTTCTAACCTGTTGCTT (site TGGGACCCTAT) | 0.312

From the supplement of paper PMC11208160
